# In US20100069421A1, “COMPOSITIONS AND METHODS FOR THE TREATMENT OF RADIATION PROCTOSIGMOITIS” (priority 2006, published 2010):
# System: patient experiencing radiation induced enteritis
# Experiment: Administration of rifaximin to a patient experiencing radiation induced enteritis
# Type: in vivo, human
# Details: no data shown
# Source text: The recognition of bacteria as primarily causative of the symptomatology seen in cancer patients represents a paradigm shift in that bacterial colonization, overgrowth, and/or invasion are a potentially curable or controllable source of a patient's discomfort. Furthermore, this represents a paradigm shift in that prior measures commonly used in the amelioration of such problems were supportive in nature, addressing the symptoms of these conditions and not the root cause itself. This permits greater targeting of the symptoms' cause and results in improved efficacy of symptom amelioration, while at the same time causing fewer adverse effects, as would be commonly seen with supportive measures such as traditional anti-diarrheals. […] Furthermore, it enables the physician to treat the cause of the symptoms in such a way that suboptimally effective supportive measures can not. This is seen in terms of greater targeting of therapy, fewer drug interactions, and improved tolerance to therapy. Particular benefit is seen with this therapy because it may prevent or ameliorate symptoms that would otherwise necessitate a break in treatment to allow the patient to recover from their symptoms. […]
smiles,measurement,value
CO[C@H]1/C=C/O[C@@]2(C)Oc3c(C)c(O)c4c(O)c(c5c(nc6cc(C)ccn65)c4c3C2=O)NC(=O)/C(C)=C\C=C\[C@H](C)[C@H](O)[C@@H](C)[C@@H](O)[C@@H](C)[C@H](OC(C)=O)[C@@H]1C [Rifaximin],symptoms of radiation induced enteritis,reduces symptoms of the condition
